The results in this text go back to PMC11397024, “Strategic Fluorination to Achieve a Potent, Selective, Metabolically Stable, and Orally Bioavailable Inhibitor of CSNK2” (Molecules, 2024).

In series [1] the target is T1, PHKG1 (Homo sapiens, UniProt Q16816).
T1 construct: purchased Promega (NanoBRET Target Engagement K192 Kinase Selectivity System)
The experiment in a line: NanoBRET dose-response PHKG1. Type of series: cell-based. The settings on record: highest concentration tested 30 μM.

Series [2] concerns A549-ACE2 cells. The experiment in a line: CellTiter-Glo cytotoxicity assay. Type of series: cell-based, Human. As for the experimental part: (§1) A549-ACE2 cells were maintained in low-glucose DMEM (Gibco, Waltham, MA, USA) supplemented with 10% FBS, 1% NEAA, and 1% L-glutamine. No antibiotics were used. Cells were plated at 2000 cells/well in a 384-well plate (Costar, Glendale, AZ, USA) and incubated overnight (37 °C, 5% CO2) before adding the compound. Compounds were added in quadruplicate and incubated for 48 h. DMSO percentage was constant across all concentrations of the compound. Cell viability was measured using CellTiter-Glo2 (Promega, Madison, WI, USA) and the luminescence signal was read on a GloMax plate reader (Promega, Madison, WI, USA). Dose–response analysis was performed using GraphPad Prism.
(In general: In ATP-based viability assays light output follows the ATP content of the culture.)

Series [3] in a line: CellTiter-Glo cytotoxicity assay. Type of series: cell-based, Human. The settings on record: human, A549-ACE2 cells, 48 h, CellTiter-Glo, quadruplicate. As to the method:
as §1

Series [4] is described as follows: Hepatocyte stability, mouse. The settings on record: male, CD-1, cryopreserved hepatocytes, over 2 h. Type of series: in vitro ADME. As to the method: Human cryopreserved hepatocytes were supplied by BioIVT (lot QZW, 10 pooled donors, Westbury, NY, USA). Mouse cryopreserved hepatocytes were supplied by BioIVT (lot ZPG, pooled male CD-1). Vials of cryopreserved hepatocytes were removed from storage and thawed in a 37 °C water bath with gentle shaking, and then the contents were poured into a 50 mL thawing medium conical tube. Vials were centrifuged at 100× g for 10 min at room temperature. The thawing medium was aspirated, and hepatocytes were resuspended with a serum-free incubation medium to yield ~1.5 × 10^6 cells/mL. Cell viability and density were counted using AO/PI fluorescence staining, and then cells were diluted with a serum-free incubation medium to a working cell density of 0.5 × 10^6 viable cells/mL. Aliquots of 198 μL of hepatocytes were dispensed into each well of a 96-well noncoated plate. The plate was placed in an incubator for approximately 10 min. […] Peak areas were determined from extracted ion chromatograms, and the slope value, k, was determined by linear regression of the natural logarithm of the remaining percentage of the parent drug vs. incubation time curve. The intrinsic clearance (CLint in μL/min/10^6 cells) was calculated using the relationship CLint = kV/N, where V is the incubation volume (0.2 mL) and N is the number of hepatocytes per well (0.1 × 10^6 cells). […]

In series [5] the test system is 192 human kinases. The experiment in a line: NanoBRET K192 panel, whole panel. Type of series: cell-based. The settings on record: six off-target kinases, dose-response experiments. As for the experimental part: The K192 selectivity assay was run according to the Draft Promega technical manual, NanoBRET^TM Target Engagement K192 Kinase Selectivity System. Reagents were supplied by Promega (Promega NP 4101). For the assay, DNA from the prepared kinase vector panel plates A and B were mixed with Fugene in 96-well plates (Corning 3917) and incubated at room temperature for 30 min. The NanoLuc® Low control vector pNL1.1.CMV [Nluc/CMV] Vector (Cat.# N1091) and the transfection control vector NanoLuc®-HIPK2 Fusion Vector (Cat.# NV3221) were used as controls.
HEK293 cells were grown to 75–95% confluency in DMEM (Gibco 11995-065) supplemented with FBS (Avantor 97068-085) at 37 °C in 5% RH. […]
On day two of the assay, 5 μL of 20X K10 tracer was prepared and added at concentrations recommended by Promega. […] After 2–3 min, the plate was shaken at 300 RPM for 10 s, and the donor emission wavelength (450 nm) and acceptor emission wavelength (610 nm) were measured using the Glomax® Discover System.
As a quality check, the donor signal-to-background ratio was calculated for each individual kinase by dividing the mean donor signal for each kinase by the mean donor signal for the signal-to-background control wells. Fractional occupancy of the test drug for each kinase was determined using the following formula:Occupancy (%) = [1 − (Sample − Bottom)/(Top − Bottom)] × 100 where
(In general: BRET reads energy transfer from a luciferase to a nearby fluorophore.)

Series [6] has as its target T2, CLK4 (Homo sapiens, UniProt Q9HAZ1).
T2 construct: expressed in transfected cells; host or cells: HEK293
The experiment in a line: NanoBRET dose-response CLK4. Type of series: cell-based. The settings on record: highest concentration tested 30 μM.

In series [7] the test system is mouse hepatitis virus (MHV). The experiment in a line: MHV assay (MHV-nLuc in DBT cells). The settings on record: Murine coronavirus, read-out: MHV pIC50 (converted).
Experimental: DBT cells were cultured at 37 °C in Dulbecco’s modified Eagle medium (DMEM; Sigma-Aldrich, St. Louis, MO, USA) supplemented with 10% fetal bovine serum (FBS; Avantor, Randor, PA, USA) and penicillin and streptomycin (Sigma-Aldrich, St. Louis, MO, USA). DBT cells were plated in 96-well plates to be 80% confluent at the start of the assay. Test compounds or positive control EIDD-1931 were diluted to 15 μM in DMEM. Serial 4-fold dilutions were made in DMEM, providing a concentration range of 15–0.22 μM. Media were aspirated from the DBT cells, and 100 μL of the diluted test compounds was added to the cells for 1 h at 37 °C. After 1 h, MHV-nLuc5 was added at an MOI of 0.1 in 50 μL of DMEM so that the final concentration of the first dilution of the compound was 10 μM (T = 0). After 10 h, the media were aspirated, and the cells were washed with PBS and lysed with passive lysis 5X buffer (Promega, Madison, WI, USA) for 20 min at room temperature. Relative light units (RLUs) were measured using a luminometer (Promega; GloMax, Madison, WI, USA). Triplicate data were analyzed in GraphPad Prism version 9.4.1 for macOS to generate IC50 values.
Series [8] has as its target T3, CLK1 (Homo sapiens, UniProt P49759).
T3 construct: purchased Promega (NanoBRET Target Engagement K192 Kinase Selectivity System)
The experiment in a line: NanoBRET dose-response CLK1. Type of series: cell-based.

What is called viability is a per cent measure of how many cells are alive, often set against a control. Higher therefore signals less harm to the cells. One may read the CLint scaled as the capacity of the preparation to metabolise the compound, expressed as a volume cleared per time. Low values mean greater metabolic stability, high ones faster metabolism.

Bounds are passed on as bounds.

T1 sequence (Q16816 whole entry): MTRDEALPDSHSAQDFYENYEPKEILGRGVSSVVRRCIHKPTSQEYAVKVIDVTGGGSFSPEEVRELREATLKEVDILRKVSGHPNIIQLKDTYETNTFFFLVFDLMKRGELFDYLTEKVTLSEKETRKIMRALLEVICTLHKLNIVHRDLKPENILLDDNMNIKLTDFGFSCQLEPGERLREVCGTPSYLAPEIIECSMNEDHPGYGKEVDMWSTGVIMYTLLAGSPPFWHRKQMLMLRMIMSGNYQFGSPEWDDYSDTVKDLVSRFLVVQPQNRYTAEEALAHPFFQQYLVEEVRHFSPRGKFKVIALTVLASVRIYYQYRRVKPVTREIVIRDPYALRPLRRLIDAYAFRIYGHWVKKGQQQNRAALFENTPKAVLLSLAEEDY
T2 sequence (Q9HAZ1 whole entry): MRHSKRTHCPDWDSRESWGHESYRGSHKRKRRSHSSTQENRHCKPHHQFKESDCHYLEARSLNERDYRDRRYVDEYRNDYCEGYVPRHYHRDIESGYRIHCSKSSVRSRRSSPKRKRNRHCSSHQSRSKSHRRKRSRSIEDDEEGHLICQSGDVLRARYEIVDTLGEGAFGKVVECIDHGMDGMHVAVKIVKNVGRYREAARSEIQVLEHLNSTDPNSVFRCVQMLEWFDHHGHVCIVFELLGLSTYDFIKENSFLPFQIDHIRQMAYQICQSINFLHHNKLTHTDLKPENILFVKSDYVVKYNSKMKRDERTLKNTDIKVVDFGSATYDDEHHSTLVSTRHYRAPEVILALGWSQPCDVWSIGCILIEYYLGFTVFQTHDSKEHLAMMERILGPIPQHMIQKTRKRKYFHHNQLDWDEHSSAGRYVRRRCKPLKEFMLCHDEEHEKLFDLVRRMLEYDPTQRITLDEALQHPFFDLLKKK
T3 sequence (P49759 whole entry): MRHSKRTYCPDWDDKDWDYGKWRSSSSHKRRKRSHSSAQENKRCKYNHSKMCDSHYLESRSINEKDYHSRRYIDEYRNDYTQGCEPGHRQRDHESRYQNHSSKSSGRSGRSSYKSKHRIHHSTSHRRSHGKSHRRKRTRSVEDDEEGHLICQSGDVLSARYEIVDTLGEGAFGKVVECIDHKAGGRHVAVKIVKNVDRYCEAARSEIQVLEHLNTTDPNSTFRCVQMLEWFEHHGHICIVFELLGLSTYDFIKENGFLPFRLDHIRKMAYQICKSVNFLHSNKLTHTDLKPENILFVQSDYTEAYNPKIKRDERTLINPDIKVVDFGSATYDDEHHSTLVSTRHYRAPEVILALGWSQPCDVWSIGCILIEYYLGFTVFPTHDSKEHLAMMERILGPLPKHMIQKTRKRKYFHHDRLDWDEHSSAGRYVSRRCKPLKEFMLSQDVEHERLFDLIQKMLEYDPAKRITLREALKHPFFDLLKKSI

As for `CCC(=O)Nc1cc(Nc2cc(NC3CC3)n3ncc(C#N)c3n2)c(F)cc1N1CCC[C@H](NC)C1` [Compound 2, (S)-N-(5-((3-cyano-7-(cyclopropylamino)pyrazolo[1,5-a]pyrimidin-5-yl)amino)-4-fluoro-2-(3-(methylamino)piperidin-1-yl)phenyl)propionamide], the IC50 in series [1] was above 30 µM; in series [6] it was above 30 µM; in series [7], 0.158 µM; in series [8], 29 µM. The results for the “cytotoxicity in A549-ACE2 cells” value in series [2] (0.1 μM) and in series [2] (1.0 μM) were “no toxicity” and “low toxicity”, respectively. In addition, the viability at 48 h, 0.1 µM in series [3] (0.1 μM) stood at 100%. For the same compound, in series [3] (1.0 μM), the viability at 48 h, 1 µM is 76%. In addition, in series [4], the CLint scaled at 1 μM is 180 mL/min/kg. Further, the “selectivity compared to CSNK2A1 and CSNK2A2” value in series [5] was at least 1000 fold.
